Results from US20070128217A1 (priority 2003, published 2007).

Key:
[1] = tested on: control sera (pooled serum of ten healthy LUMC hospital workers; commercial negative donor pooled serum from the Dutch bloodbank); format: binding, human; set-up: Binding of Control serum LUMC to linear peptides / Binding of Control serum Blood-bank to linear peptides / Binding of Control serum LUMC to looped peptides / Binding of Control Serum Blood-Bank to Looped peptides / Binding of Control serum LUMC to linear peptides of the protein M of SARS-CoV Urbani / Binding of Control serum Blood-bank to linear peptides of the protein M of SARS-CoV Urbani / Binding of Control serum LUMC to looped peptides of the protein M of SARS-CoV Urbani / Binding of Control Serum Blood-Bank to Looped peptides of the protein M of SARS-CoV Urbani: unit not given here
[2] = tested on: rabbit serum obtained by immunizing a rabbit with the SARS-CoV strain Frankfurt 1; format: binding; set-up: Binding of a rabbit serum to linear peptides / Binding of a rabbit serum to looped peptides / Rabbit serum linear peptides / Rabbit serum looped peptides / Binding of a rabbit serum to linear peptides of protein N of SARS-CoV Urbani (Rabbit serum linear peptides) / Binding of a rabbit serum to looped/cyclic peptides of protein N of SARS-CoV Urbani (Rabbit serum looped peptides): unit not given here
[3] = tested on: recombinant human anti-SARS-CoV antibody 03-018; format: binding; set-up: Binding of antibody 03-018 to linear peptides of the N protein of SARS-CoV Urbani / Binding of antibody 03-018 to looped/cyclic peptides of the N protein of SARS-CoV Urbani: unit not given here
[4] = tested on: antibodies in sera from SARS patients (sera 1a, 1b, 2, 6, 37, 62, London, SARS-yellow, SARS-green); format: binding, human; set-up: Binding of serum 6 to linear peptides of protein X1 of SARS-CoV Urbani / Binding of serum 37 to linear peptides of protein X1 of SARS-CoV Urbani / Binding of serum 6 to looped/cyclic peptide (PEPSCAN-ELISA) / Binding of serum 37 to looped/cyclic peptide (PEPSCAN-ELISA) / Binding of serum 37 to looped/cyclic peptides of protein X1 of SARS-CoV Urbani / Binding of serum 6 to linear peptides of protein X2 / Binding of serum 37 to linear peptides of protein X2 / Binding of serum 37 to looped/cyclic peptides of protein X2 of SARS-CoV Urbani / Binding of serum 6 to linear peptides of protein M of SARS-CoV Urbani / Binding of serum 37 to linear peptides of protein M of SARS-CoV Urbani / Binding of serum 6 to looped/cyclic peptides of protein M of SARS-CoV Urbani / Binding of serum 37 to looped/cyclic peptides of protein M of SARS-CoV Urbani / Binding of serum 6 to linear peptides of protein X3 of SARS-CoV Urbani / Binding of serum 37 to linear peptides of protein X3 of SARS-CoV Urbani / Binding of serum 37 to looped/cyclic peptides of protein X3 of SARS-CoV Urbani / Binding of serum 6 to linear peptides of protein X4 of SARS-CoV Urbani / Binding of serum 37 to linear peptides of protein X4 of SARS-CoV Urbani / Binding of serum 37 to looped/cyclic peptides of protein X4 of SARS-CoV Urbani / Binding of serum 6 to linear peptides of protein X5 of SARS-CoV Urbani / Binding of serum 37 to linear peptides of protein X5 of SARS-CoV Urbani / Binding of serum 37 to looped/cyclic peptides of protein X5 of SARS-CoV Urbani / Binding of serum 6 to linear peptides of protein N of SARS-CoV Urbani / Binding of serum 37 to linear peptides of protein N of SARS-CoV Urbani / Binding of serum 6 to linear peptide (PEPSCAN-ELISA) / Binding of serum 1a to looped/cyclic peptides of protein N of SARS-CoV Urbani / Binding of serum 1b to looped/cyclic peptides of protein N of SARS-CoV Urbani / Binding of serum 2 to looped/cyclic peptides of protein N of SARS-CoV Urbani / Binding of serum 6 to looped/cyclic peptides of protein N of SARS-CoV Urbani / Binding of serum 37 to looped/cyclic peptides of protein N of SARS-CoV Urbani / Binding of serum 62 to looped/cyclic peptides of protein N of SARS-CoV Urbani / Binding of serum London to looped/cyclic peptides of protein N of SARS-CoV Urbani / Binding of serum SARS-green to looped/cyclic peptides of protein N of SARS-CoV Urbani: unit not given here

Sequence	Binding of Control Serum Blood-Bank to Looped peptides [1]	Binding of Control serum Blood-bank to linear peptides [1]	Binding of Control serum LUMC to linear peptides [1]	Binding of Control serum LUMC to looped peptides [1]	Binding of a rabbit serum to linear peptides of protein N of SARS-CoV Urbani (Rabbit serum linear peptides) [2]	Binding of a rabbit serum to looped/cyclic peptides of protein N of SARS-CoV Urbani (Rabbit serum looped peptides) [2]	Binding of serum 1a to linear peptides of protein N of SARS-CoV Urbani [4]	Binding of serum 1a to looped/cyclic peptides of protein N of SARS-CoV Urbani [4]	Binding of serum 1b to linear peptides of protein N of SARS-CoV Urbani [4]	Binding of serum 1b to looped/cyclic peptides of protein N of SARS-CoV Urbani [4]	Binding of serum 2 to linear peptides of protein N of SARS-CoV Urbani [4]	Binding of serum 2 to looped/cyclic peptides of protein N of SARS-CoV Urbani [4]	Binding of serum 6 to linear peptides of protein N of SARS-CoV Urbani [4]	Binding of serum 6 to looped/cyclic peptides of protein N of SARS-CoV Urbani [4]	Binding of serum 37 to linear peptides of protein N of SARS-CoV Urbani [4]	Binding of serum 37 to looped/cyclic peptides of protein N of SARS-CoV Urbani [4]	Binding of serum 62 to linear peptides of protein N of SARS-CoV Urbani [4]	Binding of serum 62 to looped/cyclic peptides of protein N of SARS-CoV Urbani [4]	Binding of serum London to linear peptides of protein N of SARS-CoV Urbani [4]	Binding of serum London to looped/cyclic peptides of protein N of SARS-CoV Urbani [4]	also measured
SLPYGANKEGIVWVA	0.6	0.9	0.7	0.6	0.2	0.3	0.3	0.3	0.1	0.2	0.2	0.5	0.2	0.3	0.8	0.7	1.2	0.6	0.6	0.4	Binding of antibody 03-018 to linear peptides of the N protein of SARS-CoV Urbani [3]: 0.1; Binding of antibody 03-018 to looped/cyclic peptides of the N protein of SARS-CoV Urbani [3]: 0.2; Binding of serum SARS-green to linear peptides of protein N of SARS-CoV Urbani [4]: 0.5; Binding of serum SARS-green to looped/cyclic peptides of protein N of SARS-CoV Urbani [4]: 0.3; Binding of serum SARS-yellow to linear peptides of protein N of SARS-CoV Urbani [4]: 0.7; Binding of serum SARS-yellow to looped/cyclic peptides of protein N of SARS-CoV Urbani [4]: 0.4
SNQRSAPRITFGGPT	0.7	0.6	0.5	0.7	0.4	0.9	0.2	0.4	0.1	0.2	0.2	0.4	0.1	0.4	0.6	0.7	0.6	0.4	0.4	0.9	Recognition of the peptide by antibody 03-018 [3]: recognized; Binding of serum SARS-green to linear peptides of protein N of SARS-CoV Urbani [4]: 0.2; Binding of serum SARS-green to looped/cyclic peptides of protein N of SARS-CoV Urbani [4]: 0.3; Binding of serum SARS-yellow to linear peptides of protein N of SARS-CoV Urbani [4]: 0.5; Binding of serum SARS-yellow to looped/cyclic peptides of protein N of SARS-CoV Urbani [4]: 0.6
SPRWYFYYLGTGPEA	0.8	0.7	0.6	0.8	0.2	0.6	0.3	0.6	0.2	0.3	0.2	0.5	0.2	0.4	0.9	0.9	0.9	1.1	0.5	0.7	Binding of antibody 03-018 to linear peptides of the N protein of SARS-CoV Urbani [3]: 0.1; Binding of antibody 03-018 to looped/cyclic peptides of the N protein of SARS-CoV Urbani [3]: 0.2; Binding of serum SARS-green to linear peptides of protein N of SARS-CoV Urbani [4]: 0.6; Binding of serum SARS-green to looped/cyclic peptides of protein N of SARS-CoV Urbani [4]: 0.6; Binding of serum SARS-yellow to linear peptides of protein N of SARS-CoV Urbani [4]: 0.6; Binding of serum SARS-yellow to looped/cyclic peptides of protein N of SARS-CoV Urbani [4]: 0.7
